{
  "source": "patent US11135186B2",
  "about": "“Regulators of the endoplasmic reticulum proteostasis network” (The Scripps Research Institute, priority 2015, dated 2021)",
  "key": {"[1]": {"test_system": "ERSE-FLuc reporter (ATF6 arm of the UPR)", "assay": "ERSE-FLuc reporter, 1536-well confirmation screen in HEK293T-Rex cells", "format": "cell-based", "details": "% Tg (500 nM) activation, triplicate confirmation screen at 6.8 μM, 18 h", "from_the_text": "We employed a transcriptional reporter that quantifies activation of the ATF6 arm of the UPR in HEK293T-Rex cells. This reporter contains a fragment of the UPR-inducible BiP promoter, including three ER stress-responsive elements (ERSEs), driving expression of firefly luciferase (ERSE-FLuc; FIG. 1a)^34. We previously employed this reporter for a small-scale screen using the 1280 member compound Library of Pharmacologic Active Compounds (LoPAC) to find small molecules that activate the UPR^8. […] Optimization and miniaturization of this assay to 1536-well format was performed at the Scripps Research Institute Molecule Screening Center (SRIMSC).\nHEK293T-Rex cells incorporating either the ERSE-FLuc or XBP1s-RLuc reporters were collected by trypsinization and resuspended at a density of 500,000 cells per mL. The assay was started by dispensing 5 μL of cell suspension into each well of white, solid-bottom 1536-well plates using a flying reagent dispenser (FRD) and placed into an online incubator 3 h. Cells were then treated with 34 nL/well of either test compounds to give final concentrations of 6.8 μM, DMSO (Low control, final concentration 0.68%, 0% activation) or […] of Delta-7 thapsigargin (High control, final concentration 500 nM, 100% activation). Plates were incubated for 18 h at 37° C., removed from the incubator and equilibrated to room temperature for 10 min. Luciferase activity was detected by addition of 5 μL of ONE-Glo reagent (Promega) to each well. After a 10 min incubation time, light emission was measured with the ViewLux reader (PerkinElmer). The percent activation of each test compound was calculated as follows: % Activation=100*(Test Compound−Median Low Control)/(Median High Control ˜Median Low Control)."}, "^FTTTR^A25T": {"test_system": "^FTTTR^A25T", "assay": "[35S] metabolic labeling, secretion of flag-tagged TTR^A25T from HepG2^ATF6 cells", "format": "cell-based", "details": "15 h pretreatment, 4 h chase; for degradation of ^FTTTR^A25T / reduction of ^FTTTR^A25T secretion: 10 μM", "description": "HepG2 cells or HEK293T cells plated on poly-D-lysine coated plates were metabolically labeled in DMEM-Cys/-Met (CellGro) supplemented with glutamine, penicillin/streptomycin, dialyzed fetal bovine serum, and EasyTag EXPRESS^35S Protein Labeling Mix (Perkin Elmer) for 30 min. Cells were washed twice with complete media and incubated in prewarmed DMEM for the indicated times. Media or lysates were harvested at the indicated times. Lysates were prepared in RIPA buffer with fresh protease inhibitor cocktail (Roche). FLAG tagged TTR variants or ALLC were immunopurified using M1 anti-FLAG agarose beads (Sigma-Aldrich) and washed three times with RIPA buffer. The immunoisolates were then eluted by boiling in Laemmli buffer and separated on SDS-PAGE. For total secreted media, 15 uL aliquots from media incubated for 4 hrs on pulsed cells were run on a SDS-PAGE. The gels were then dried, exposed to phosphorimager plates (GE Healthcare), and imaged with a Typhoon imager. Band intensities were quantified by densitometry in ImageQuant. Fraction secreted was calculated using the equation: fraction secreted=[extracellular [^35S]-LC signal at t=t/(extracellular [^35S]-LC signal at t=0+intracellular [^35S]-LC signal at t=0)]. Fraction remaining was calculated using the equation: [(extracellular [^35S]-LC signal at t=t+intracellular [^35S]-LC signal at t=t)/(extracellular [^35S]-LC signal at t=0+ intracellular [^35S]-LC signal at t=0)]."}, "[2]": {"test_system": "ALLC (amyloidogenic light chain)", "assay": "Light chain ELISA, ALLC from ALMC-2 plasma cells", "format": "cell-based, human", "details": "ALMC-2 cells; for EC50: read-out: EC50 of dose dependent reduction in ALLC secretion", "description": "ALMC-2 or KAS-6/1 plasma cells were plated 100,000 cells/well in 150 μL of media in 96-well MultiScreenHTS filtration plates (Millipore MSBVS1210). Triplicate wells were treated with DMSO or compounds at the indicated concentrations and incubated for 16 h. Media was removed by filtration using a QIAvac 96 vacuum manifold (Qiagen) and wells were washed two times with 150 μL media. Wells were then incubated with 150 μL of fresh media for 2 hr and the conditioned media was harvested into a 96-well plate using the vacuum manifold. Free λLC and IgG concentrations were determined by ELISA in 96-well plates (Immulon 4HBX, Thermo Scientific). Wells were coated overnight at 37° C. with rabbit anti-human A light chain polyclonal antibody (Bethyl Laboratories, A90-112A) at a 1:1000 dilution or human IgG-heavy and light chain antibody (Bethyl Laboratories, A80-118A) at a 1:2000 dilution in 50 mM sodium carbonate (pH 9.6). In between all incubation steps, the plates were rinsed extensively with Tris-buffered saline containing 0.05% Tween-20 (TBST). Plates were blocked with 5% non-fat dry milk in TBST for 1 h at 37° C. Media analytes were diluted between 5-200 fold in 5% non-fat dry milk in TBST and 100 μL of each sample was added to individual wells. Light chain or IgG standards ranging from 3-300 ng/mL were prepared from purified human Bence Jones A light chain or human reference serum (Bethyl Laboratories, P80-127 and RS10-110). Plates were incubated at 37° C. for 1.5 h while shaking. Finally, HRP-conjugated goat anti-human A light chain antibody (Bethyl Laboratories, A80-116P) was added at a 1:10,000 dilution or HRP-conjugate IgG-Fc fragment cross-adsorbed antibody (Bethyl Laboratories, A80-304P, 1:30,000 dilution) was added in 5% non-fat dry milk in TBST, followed by a 1.5 h incubation of the plates at 37° C. The detection was carried out with 2,2′-azinobis(3-ethylbenzothiazoline-6-sulfonic acid) (ABTS, 0.18 mg/mL) and 0.03% hydrogen peroxide in 100 mM sodium citrate pH 4.0. Detection solution (100 μL) was added to each well and the plates were incubated at room temperature. The absorbance was recorded at 405 nm and the values for the LC standards were fitted to a 4-parameter logistic function. Light chain or IgG concentrations were averaged from at least 3 independent replicates under each treatment and then normalized to vehicle conditions."}},
  "data": [
    {"smiles": "Cc1ccc(O)c(N/C=C/C(=O)c2ccc(F)cc2)c1", "note": "[Compound 132]", "values": [
      {"measurement": "% ERSE-FLuc activation", "setting": "[1]", "value": "140.1 ± 17.4", "unit": "%"},
      {"measurement": "^FTTTR^A25T secretion (in words)", "setting": "^FTTTR^A25T; 10 μM compound or 1 μM Tg", "value": "did not significantly influence"},
      {"measurement": "degradation of ^FTTTR^A25T", "setting": "^FTTTR^A25T", "value": "did not significantly influence"},
      {"measurement": "EC50", "setting": "[2]", "value": "~1000", "unit": "nM"}
    ]},
    {"smiles": "Cc1ccc(O)c(NC(=O)CCc2ccccc2)c1", "note": "[Compound 147]", "values": [
      {"measurement": "% ERSE-FLuc activation", "setting": "[1]", "value": "63.2 ± 0.6", "unit": "%"},
      {"measurement": "degradation of ^FTTTR^A25T", "setting": "^FTTTR^A25T", "value": "increased degradation"},
      {"measurement": "reduction of ^FTTTR^A25T secretion", "setting": "^FTTTR^A25T", "value": 45, "unit": "%"},
      {"measurement": "reduction of ALLC secretion", "setting": "[2]; 10 μM pretreatment, ELISA", "value": 60, "unit": "%"},
      {"measurement": "ALLC intracellular protein levels", "setting": "[2]; ELISA", "value": "unchanged"},
      {"measurement": "EC50", "setting": "[2]", "value": "~1000", "unit": "nM"}
    ]},
    {"smiles": "O=[N+]([O-])c1ccc(N/N=C/c2ccccc2O)cc1", "note": "[Compound 263]", "values": [
      {"measurement": "% ERSE-FLuc activation", "setting": "[1]", "value": "20.7 ± 2.3", "unit": "%"},
      {"measurement": "degradation of ^FTTTR^A25T", "setting": "^FTTTR^A25T", "value": "increased degradation"},
      {"measurement": "reduction of ^FTTTR^A25T secretion", "setting": "^FTTTR^A25T", "value": 45, "unit": "%"},
      {"measurement": "ALLC secretion (in words)", "setting": "[2]; 10 μM", "value": "only minimally affects"}
    ]}
  ]
}
